Test results taken from US10118935B2, “Melampomagnolide B dimers” (priority 2014, dated 2018).

Legend:
[1] = system: NCI-H522; assay: NCI 60 cell line five dose, Non-Small Cell Lung Cancer
[2] = system: MALME-3M; assay: NCI 60 cell line five dose, Melanoma; details: MALME-3M
[3] = system: SNB-75; assay: NCI 60 cell line five dose, CNS Cancer
[4] = system: HCT-116; assay: NCI 60 cell line five dose, Colon Cancer
[5] = system: OVCAR-8; assay: NCI 60 cell line five dose, Ovarian Cancer
[6] = system: SK-MEL-2; assay: NCI 60 cell line five dose, Melanoma
[7] = system: OVCAR-5; assay: NCI 60 cell line five dose, Ovarian Cancer
[8] = system: SK-MEL-5; assay: NCI 60 cell line five dose, Melanoma; details: SK-MEL-5
[9] = system: MDA-MB-231/ATCC; assay: NCI 60 cell line five dose, Breast Cancer
[10] = system: panel of 60 human cancer cell lines; assay: Five-dose growth inhibition, panel; format: cell-based
[11] = system: NCI-H322M; assay: NCI 60 cell line five dose, Non-Small Cell Lung Cancer
[12] = system: MCF7; assay: NCI 60 cell line five dose, Breast Cancer
[13] = system: OVCAR-3; assay: NCI 60 cell line five dose, Ovarian Cancer
[14] = system: SW-620; assay: NCI 60 cell line five dose, Colon Cancer
[15] = system: NCI-H322M
[16] = system: NCI-H23; assay: NCI 60 cell line five dose, Non-Small Cell Lung Cancer
[17] = system: MDA-MB-468; assay: NCI 60 cell line five dose, Breast Cancer
[18] = system: U251; assay: NCI 60 cell line five dose, CNS Cancer
[19] = system: LOX IMVI; assay: NCI 60 cell line five dose, Melanoma
[20] = system: BT-549; assay: NCI 60 cell line five dose, Breast Cancer
[21] = system: MDA-MB-435; assay: NCI 60 cell line five dose, Melanoma
[22] = system: RPMI-8226; assay: NCI 60 cell line five dose, Leukemia
[23] = system: A549/ATCC; assay: NCI 60 cell line five dose, Non-Small Cell Lung Cancer

Which results are given for `C=C1C(=O)O[C@H]2[C@H]1CC/C(COC(=O)CCC(=O)NCCCCCCCCNC(=O)CCC(=O)OC/C1=C/CC[C@@]3(C)O[C@H]3[C@H]3OC(=O)C(=C)[C@@H]3CC1)=C\CC[C@@]1(C)O[C@@H]21` [JVM 2-87, bis(((1aR,7aS,10aS,10bS,E)-1a-Methyl-8-methylene-9-oxo-1a,2,3,6,7,7a,8,9,10a,1b-decahydrooxireno[2′,3′:9,10]cyclodeca[1,2-b]furan-5-yl)methyl)4,4′-(octane-1,8-diylbis(azanediyl))bis(4-oxobutanoate)]?
GI50 [1]: 480 nM; TGI [1]: 1800 nM; GI50 [2]: 2040 nM; TGI [2]: 4040 nM; GI50 [3]: 2020 nM; TGI [3]: 7250 nM; GI50 [4]: 1540 nM; TGI [4]: 2880 nM; GI50 [5]: 2900 nM; TGI [5]: 13300 nM; GI50 [6]: 2250 nM; TGI [6]: 4590 nM; GI50 [7]: 1820 nM; TGI [7]: 3640 nM; GI50 [8]: 3130 nM; TGI [8]: 11100 nM; GI50 [9]: 1970 nM; TGI [9]: 4410 nM; growth inhibition (GI50) ([10]; CCRF-CEM, HL-60 (TB), K-562, SR): nanomolar range; growth inhibition (GI50) ([10]; NCI-H522, RXF 393, MCF7): nanomolar range; growth inhibition (GI50) ([10]; other human tumor cell lines in the panel): low micromolar range; GI50 [11]: 16300 nM; TGI [11]: 31400 nM; GI50 [12]: 770 nM; TGI [12]: 2470 nM; GI50 [13]: 1500 nM; TGI [13]: 2820 nM; GI50 [14]: 1220 nM; TGI [14]: 2970 nM; CC50 [15]: 60500 nM; GI50 [16]: 2990 nM; TGI [16]: 8250 nM; GI50 [17]: 1330 nM; TGI [17]: 3840 nM; GI50 [18]: 3030 nM; TGI [18]: 10600 nM; GI50 [19]: 1370 nM; TGI [19]: 2760 nM; GI50 [20]: 1230 nM; TGI [20]: 2510 nM; GI50 [21]: 1800 nM; TGI [21]: 3690 nM; GI50 [22]: 1670 nM; TGI [22]: 5700 nM; GI50 [23]: 18500 nM; TGI [23]: 40700 nM
